Data published in patent publication US6191127A, “Substituted heterocycles and their use in medicaments” (Schering Aktiengesellschaft, priority 1997, dated 2001).

How the values were obtained:
Assay type in all cases: biochemical
[1] = biological target: recombinant human endothelial NO-synthases (ecNOS) (Homo sapiens, UniProt P29474); assay: Inhibition assay with recombinant human endothelial NO-synthases (ecNOS); conditions: substrate [3H]-arginine; analogously to bcNOS
Excerpt: (§1) The NOS-inhibitory action of the compounds of Formula I and their physiologically compatible salts can be determined with the variants that are mentioned below according to the methods by Bredt and Snyder in Proc. Natl. Acad. Sci. USA (1989) 86, 9030.
(§2) Inhibition assay with recombinant human brain NO-synthases (bcNOS). (Concentration: 0.022 IU/l). Measured parameters: % inhibition by test compound. Substrate: [3H]-arginine (concentration 4.4E-08 mol/l). Analogously to recombinant human endothelial NO-synthases (ecNOS) and recombinant human inducible NO-synthases (iNOS).

[2] = biological target: recombinant human inducible NO-synthases (iNOS) (Homo sapiens, UniProt P35228); assay: Inhibition assay with recombinant human inducible NO-synthases (iNOS); conditions: substrate [3H]-arginine; analogously to bcNOS
Excerpt: as §1, §2

[3] = biological target: recombinant human brain NO-synthases (bcNOS) (Homo sapiens, UniProt P29475); assay: Inhibition assay with recombinant human brain NO-synthases (bcNOS); conditions: substrate [3H]-arginine 4.4E-08 mol/l; bcNOS 0.022 IU/l
Excerpt: as §1, §2

Row | IC50 [1] [µM] | IC50 [2] [µM] | IC50 [3] [µM] | SMILES
1 | > 10 | > 100 | 1.2 | CCCC1Oc2ccccc2N=C1N (stereo not drawn) [2-n-Propyl-3-amino-1,4-benzoxazine]
2 | > 10 | > 100 | 3 | Cc1cc2c(cc1C)OC(C)C(N)=N2 (stereo not drawn) [2,6,7-Trimethyl-3-amino-1,4-benzoxazine]
3 | > 100 | > 10 | 20 | Cc1cccc2c1OC(C)C(N)=N2 (stereo not drawn) [2,8-Dimethyl-3-amino-1,4-benzoxazine]
